The term IC50 denotes the concentration that gives 50% inhibition. Lower therefore signals inhibition by little substance. In general, CC50 refers to the concentration at which the toxic effect on the cells reaches its halfway point. Higher therefore signals better tolerance by the cells.

Structures are written as SMILES. Activity calls are given as the source filed them. No cut-off for these calls is given here.

We go through two compounds from ChEMBL document CHEMBL4765259, “Synthesis and biological evaluation of novel shikonin-benzo[b]furan derivatives as tubulin polymerization inhibitors targeting the colchicine binding site” (Eur J Med Chem, 2020).

Series [1] has as its system HT-29. Briefly: Induction of microtubule disruption in human HT-29 cells at 0.5 uM incubated for 24 hrs by DAPI staining based confocal fluorescence microscopic analysis. The series is classed as cell-based.
In series [2] the test system is MCF7. Briefly: cells. As to conditions: Homo sapiens, MCF7, 48 h.
Description: Antiproliferative activity against drug-resistant human MCF7 cells incubated for 48 hrs by MTT assay
Series [3] relates to HT-29. Nature of the series: Induction of apoptosis in human HT-29 cells assessed as necrotic cells at 0.5 uM measured after 24 hrs by Annexin V-FITC/propidium iodide staining based flow cytometry (reference value: 0.1 %). The class given is functional.
Series [4] deals with HT-29. Nature of the series: Induction of apoptosis in human HT-29 cells assessed as early apoptotic cells at 1 uM measured after 24 hrs by Annexin V-FITC/propidium iodide staining based flow cytometry (reference value: 1.6 %). The series is classed as functional. In general terms: In flow cytometry, cells or beads pass a laser one at a time.
In series [5] the test system is HT-29. Nature of the series: Cell cycle arrest in human HT29 cells assessed as cell accumulation at S phase at […] incubated for 24 hrs by propidium iodide staining based flow cytometry (reference value: […] %). The class given is functional. The note with it: dose 0.25 µM.
Series [6] relates to HT-29. Nature of the series: Antiproliferative activity against human HT29 cells incubated for 48 hrs by MTT assay. The class given is functional, cell-based. As to conditions: HT-29, 48 h. Background: Tetrazolium assays rely on reduction of a dye to a coloured formazan, in cell work by metabolically active cells.
A short description of series [7]: Antiproliferative activity against human LO2 cells incubated for 48 hrs by MTT assay. The class given is cell-based, L02.
Series [8] concerns MCF7. Nature of the series: cells. The note with it: Homo sapiens, MCF7, 48 h. The source holds these as a separate data set.
In series [9] the test system is K562. Nature of the series: cells. The note with it: Homo sapiens, K562, 48 h.
Description: Antiproliferative activity against human K562 cells incubated for 48 hrs by MTT assay
The test system of series [10] is HT-29. Nature of the series: Cell cycle arrest in human HT29 cells assessed as cell accumulation at G1 phase at […] incubated for 24 hrs by propidium iodide staining based flow cytometry (reference value: 69.19 %). The class given is functional. The note with it: dose 0.25 µM.
Series [11] concerns A549. Nature of the series: cells. As to conditions: Homo sapiens, A549, 48 h.
In series [12] the test system is HT-29. Briefly: Cell cycle arrest in human HT29 cells assessed as cell accumulation at G2 phase at […] incubated for 24 hrs by propidium iodide staining based flow cytometry (reference value: […]). The class given is functional. As to conditions: dose 0.25 µM.
Series [13] relates to HT-29. Nature of the series: Induction of apoptosis in human HT-29 cells assessed as necrotic cells at 1 uM measured after 24 hrs by Annexin V-FITC/propidium iodide staining based flow cytometry (reference value: 0.1 %). The class given is functional.
Series [14] has as its system HT-29. Briefly: Induction of apoptosis in human HT-29 cells assessed as late apoptotic cells at 1 uM measured after 24 hrs by Annexin V-FITC/propidium iodide staining based flow cytometry (reference value: 0.0 %). The series is classed as functional.
The subject of series [15] is HepG2. Briefly: Antiproliferative activity against human HepG2 cells incubated for 48 hrs by MTT assay. The class given is functional, cell-based. As to conditions: HepG2, 48 h.
The nature of series [16]: Antiproliferative activity against human HEK293T cells incubated for 48 hrs by MTT assay. The class given is cell-based, HEK-293T.
Series [17] deals with HT-29. Briefly: Induction of apoptosis in human HT-29 cells assessed as late apoptotic cells at […] measured after 24 hrs by Annexin V-FITC/propidium iodide staining based flow cytometry (reference value: 0.0 %). The class given is functional. As to conditions: dose 0.25 µM.
The subject of series [18] is HT-29. Nature of the series: Cell cycle arrest in human HT29 cells assessed as cell accumulation at G1 phase at 1 uM incubated for 24 hrs by propidium iodide staining based flow cytometry (reference value: 69.19 %). The class given is functional.
For series [19], the system named is HT-29. Briefly: Cell cycle arrest in human HT29 cells assessed as cell accumulation at G2 phase at 0.5 uM incubated for 24 hrs by propidium iodide staining based flow cytometry (reference value: […]). The class given is functional.
The test system of series [20] is HT-29. Briefly: Induction of apoptosis in human HT-29 cells assessed as viable cells at 1 uM measured after 24 hrs by Annexin V-FITC/propidium iodide staining based flow cytometry (reference value: 98.3 %). The series is classed as functional. As to conditions: read-out: Activity.
Series [21] concerns HT-29. Nature of the series: Cell cycle arrest in human HT29 cells assessed as cell accumulation at G1 phase at 0.5 uM incubated for 24 hrs by propidium iodide staining based flow cytometry (reference value: 69.19 %). The class given is functional.
Series [22] concerns K562. Briefly: Antiproliferative activity against drug resistant human K562 cells incubated for 48 hrs by MTT assay. The series is classed as functional, cell-based. As to conditions: K562, 48 h.
Series [23] has as its system HT-29. Briefly: Cell cycle arrest in human HT29 cells assessed as cell accumulation at S phase at 1 uM incubated for 24 hrs by propidium iodide staining based flow cytometry (reference value: […] %). The class given is functional.
For series [24], the system named is HT-29. Briefly: Induction of apoptosis in human HT-29 cells assessed as necrotic cells at […] measured after 24 hrs by Annexin V-FITC/propidium iodide staining based flow cytometry (reference value: 0.1 %). The series is classed as functional. As to conditions: dose 0.25 µM.
Series [25] in a line: Inhibition of tubulin polymerization (unknown origin) measured every 2 mins for 60 mins by spectrophotometric method. Also on record: species or system Homo sapiens.
In series [26] the test system is HCT-116. Briefly: cells. The note with it: Homo sapiens, HCT-116, 48 h.
Description: Antiproliferative activity against human HCT116 cells incubated for 48 hrs by MTT assay
Series [27] relates to MDA-MB-231. Briefly: cells. The note with it: Homo sapiens, MDA-MB-231, 48 h.
Series [28] has as its system HT-29. Briefly: Induction of apoptosis in human HT-29 cells assessed as viable cells at 0.5 uM measured after 24 hrs by Annexin V-FITC/propidium iodide staining based flow cytometry (reference value: 98.3 %). The class given is functional. As to conditions: read-out: Activity.
Series [29] has as its system HT-29. Nature of the series: Cell cycle arrest in human HT29 cells assessed as cell accumulation at G2 phase at 1 uM incubated for 24 hrs by propidium iodide staining based flow cytometry (reference value: […]). The class given is functional.
The test system of series [30] is HT-29. Nature of the series: Cell cycle arrest in human HT29 cells assessed as cell accumulation at S phase at 0.5 uM incubated for 24 hrs by propidium iodide staining based flow cytometry (reference value: […] %). The series is classed as functional.
Series [31] concerns HT-29. Nature of the series: Induction of apoptosis in human HT-29 cells assessed as viable cells at […] measured after 24 hrs by Annexin V-FITC/propidium iodide staining based flow cytometry (reference value: 98.3 %). The series is classed as functional. As to conditions: dose 0.25 µM, read-out: Activity.
For series [32], the system named is HT-29. Briefly: Induction of apoptosis in human HT-29 cells assessed as early apoptotic cells at 0.5 uM measured after 24 hrs by Annexin V-FITC/propidium iodide staining based flow cytometry (reference value: 1.6 %). The class given is functional.
Series [33] relates to HT-29. Briefly: Induction of apoptosis in human HT-29 cells assessed as early apoptotic cells at […] measured after 24 hrs by Annexin V-FITC/propidium iodide staining based flow cytometry (reference value: 1.6 %). The class given is functional. The note with it: dose 0.25 µM.
Series [34] concerns HT-29. Briefly: Induction of apoptosis in human HT-29 cells assessed as late apoptotic cells at 0.5 uM measured after 24 hrs by Annexin V-FITC/propidium iodide staining based flow cytometry (reference value: 0.0 %). The class given is functional.

Consider `CC(=O)O[C@H]1C(=O)[C@@]2(C)[C@H]([C@H](OC(=O)c3ccccc3)[C@]3(O)C[C@H](OC(=O)[C@H](O)[C@@H](NC(=O)c4ccccc4)c4ccccc4)C(C)=C1C3(C)C)[C@]1(OC(C)=O)CO[C@@H]1C[C@@H]2O`, for which the outcome in [1] was inactive.

Regarding `COc1cc2c(c(OC)c1OC)-c1ccc(OC)c(=O)cc1[C@@H](NC(C)=O)CC2` [COLCHICINE], the IC50 in series [2] turned out to be 520 nM; in series [6], 1810 nM; in [8], 110 nM; in series [9], 440 nM; in series [11] it was 1170 nM; in series [15], 1470 nM. Moreover, the concentration for half-maximal inhibition (IC50) in series [22] was determined as 6590 nM; in series [25] it was 2110 nM; in [26] it was 2130 nM; in [27], 2940 nM. Moreover, the Activity is recorded as 1.3% in series [3]; 15.8% in [4]; 24.65% in series [5]; 57.62% in series [10]; 17.73% in series [12]; 0.4% in [13]. For the same compound, the Activity in series [14] was 16.8%; in series [17] it was 5.2%; in [18] it was 23.93%; in [19], 18.25%; in series [21], 27.11%; in series [23] it was 35.66%. Also, the Activity came out at 0.3% in series [24]; 40.41% in [29]; 54.64% in [30]; 12.1% in series [32]; 7.6% in series [33]; 10.5% in series [34]. Further, the results for the CC50 at 48 h in series [7] and in series [16] were 9180 nM and 8430 nM, respectively. Moreover, in series [1], the result was Active. Also, the viability at 1 µM in series [20] turned out to be 67.1%. Moreover, in series [28], the viability at 0.5 µM is 76.1%. For the same compound, in series [31], the viability at […] was 87%.
